# Experimental data: patent US20190119284A1, “ErbB Inhibitors and Uses Thereof” (The Regents of the University of California, priority 2016, published 2019)
# Where “and” joins values, the source holds several entries; their conditions need not be identical. Identical values can stand only once. Like-named read-outs stand apart in the source and are kept apart here.
# Tests used:
# [1] = Mouse Liver Microsome stability assay; assay type: in vitro ADME; conditions: mouse liver microsomes
# [2] = Pharmacokinetic study, IV administration in male CD-1 mice; assay type: in vivo
# [3] = Pharmacokinetic study, IP administration in male CD-1 mice; assay type: in vivo
# [4] = IV 2.0 mg/kg, individual mice M1-M3, 2 mg/kg
# [5] = IV 2.0 mg/kg, plasma, individual mice M1-M3, 2 mg/kg
# [6] = male, CD-1, mouse, plasma, iv, 2 mg/kg, Mean
# [7] = male, CD-1, mouse, plasma, iv, 2 mg/kg, individual mice M1-M3
# [8] = IP 2.0 mg/kg, individual mice M1-M3
# [9] = IP 2.0 mg/kg, individual mice M1-M3, 2 mg/kg
# [10] = IP 2.0 mg/kg, plasma, individual mice M1-M3, 2 mg/kg
# [11] = male, CD-1, mouse, plasma, ip, 2 mg/kg, Mean
# [12] = male, CD-1, mouse, plasma, ip, 2 mg/kg, individual mice M1-M3
smiles,measurement,setting,value
COc1ccc(-c2ccc(F)cc2)cc1Nc1ncnc2[nH]nc(-c3cc[nH]n3)c12 [8168C],WuXi Microsomal stability (Mouse Extraction Ratio),[1],0.4
same,Plasma Concentration at 24.00 h,"[2]; IV 2.0 mg/kg, Mean",BLQ
same,Plasma Concentration at 24.00 h,"[2]; IV 2.0 mg/kg, individual mice M1-M3",BLQ
same,Plasma Concentration at 0.08 h,[2]; [4],643.79 ng/mL and 668.53 ng/mL
same,Plasma Concentration at 0.25 h,[2]; [4],361.85 ng/mL and 533.91 ng/mL
same,Plasma Concentration at 1.00 h,[2]; [4],124.19 ng/mL and 132.77 ng/mL
same,Plasma Concentration at 3.00 h,[2]; [4],16.88 ng/mL and 24.59 ng/mL
same,Plasma Concentration at 5.00 h,[2]; [4],4.53 ng/mL and 8.17 ng/mL and 9.69 ng/mL
same,Plasma Concentration at 8.00 h,[2]; [4],1.79 ng/mL and BLQ and 4.14 ng/mL
same,AUCExtra,"[2]; IV 2.0 mg/kg, plasma, Mean",1.68%
same,AUC0-inf,[2]; [5],451.15 ng·h/mL and 566.58 ng·h/mL
same,AUC0-last,[2]; [5],441.82 ng·h/mL and 554.77 ng·h/mL
same,AUCExtra,[2]; [5],0.88% and 2.07% and 2.08%
same,AUCall,[2]; [5],441.82 ng·h/mL and 554.77 ng·h/mL
same,C0,[2]; [5],857.24 ng/mL and 747.58 ng/mL
same,Cl,[2]; [5],73.89 mL/min/kg and 58.83 mL/min/kg
same,MRT0-last,[2]; [5],52.2 min and 65.4 min
same,T½,[2]; [5],102 min and 47.4 min and 119 min
same,Vd,[2]; [5],5.06 L/kg and 10.07 L/kg
same,AUC,[2]; [6],497 ng·h/mL
same,AUC(0-t),[2]; [6],497 ng·h/mL
same,clearance,[2]; [6],66.5 mL/min/kg
same,concentration at 0.08 h,[2]; [6],638 ng/mL
same,concentration at 0.25 h,[2]; [6],426 ng/mL
same,concentration at 1 h,[2]; [6],146 ng/mL
same,concentration at 3 h,[2]; [6],18.6 ng/mL
same,concentration at 5 h,[2]; [6],7.46 ng/mL
same,concentration at 8 h,[2]; [6],2.97 ng/mL
same,AUC0-inf,"[2]; male, CD-1, mouse, plasma, iv, 2 mg/kg, Mean, read-out: AUC0-inf",506 ng·h/mL
same,C0,"[2]; male, CD-1, mouse, plasma, iv, 2 mg/kg, Mean, read-out: C0",786 ng/mL
same,MRT last,"[2]; male, CD-1, mouse, plasma, iv, 2 mg/kg, Mean, read-out: MRT0-last",57.6 min
same,half-life,"[2]; male, CD-1, mouse, plasma, iv, 2 mg/kg, Mean, read-out: T½ (converted)",89.4 min
same,Vd,"[2]; male, CD-1, mouse, plasma, iv, 2 mg/kg, Mean, read-out: Vd",8.32 L/kg
same,AUC,[2]; [7],496 ng·h/mL
same,AUC(0-t),[2]; [7],496 ng·h/mL
same,clearance,[2]; [7],66.7 mL/min/kg
same,concentration at 0.08 h,[2]; [7],601 ng/mL
same,concentration at 0.25 h,[2]; [7],382 ng/mL
same,concentration at 1 h,[2]; [7],181 ng/mL
same,concentration at 3 h,[2]; [7],14.3 ng/mL
same,AUC0-inf,"[2]; male, CD-1, mouse, plasma, iv, 2 mg/kg, individual mice M1-M3, read-out: AUC0-inf",500 ng·h/mL
same,C0,"[2]; male, CD-1, mouse, plasma, iv, 2 mg/kg, individual mice M1-M3, read-out: C0",754 ng/mL
same,MRT last,"[2]; male, CD-1, mouse, plasma, iv, 2 mg/kg, individual mice M1-M3, read-out: MRT0-last",56.4 min
same,Vd,"[2]; male, CD-1, mouse, plasma, iv, 2 mg/kg, individual mice M1-M3, read-out: Vd",9.82 L/kg
same,Plasma Concentration at 5.00 h,"[3]; IP 2.0 mg/kg, Mean",BLQ
same,Plasma Concentration at 8.00 h,"[3]; IP 2.0 mg/kg, Mean",BLQ
same,Plasma Concentration at 24.00 h,"[3]; IP 2.0 mg/kg, Mean",BLQ
same,Plasma Concentration at 8.00 h,[3]; [8],BLQ
same,Plasma Concentration at 24.00 h,[3]; [8],BLQ
same,Plasma Concentration at 0.25 h,[3]; [9],306.24 ng/mL and 169.92 ng/mL
same,Plasma Concentration at 1.00 h,[3]; [9],69.88 ng/mL and 66.74 ng/mL
same,Plasma Concentration at 3.00 h,[3]; [9],9.75 ng/mL and 2.05 ng/mL and BLQ
same,Plasma Concentration at 5.00 h,[3]; [9],BLQ
same,AUCExtra,"[3]; IP 2.0 mg/kg, plasma, Mean",0.96%
same,AUC0-inf,[3]; [10],197.83 ng·h/mL
same,AUC0-last,[3]; [10],208.92 ng·h/mL and 196.69 ng·h/mL and 104.05 ng·h/mL
same,AUCExtra,[3]; [10],1.35% and 0.57%
same,AUCall,[3]; [10],208.92 ng·h/mL and 196.69 ng·h/mL and 104.05 ng·h/mL
same,Cmax,[3]; [10],306.24 ng/mL and 169.92 ng/mL
same,Half-life (T½),[3]; [10],47.4 min and 22.8 min
same,MRT0-last,[3]; [10],63.6 min and 40.2 min and 30 min
same,Half-life (T½),"[3]; male, CD-1, mouse, plasma, intraperitoneal, 2 mg/kg, IP 2.0 mg/kg, Mean, read-out: Oral T½ (converted)",35.4 min
same,AUC,[3]; [11],170 ng·h/mL
same,AUC(0-t),[3]; [11],170 ng·h/mL
same,concentration at 0.25 h,[3]; [11],228 ng/mL
same,concentration at 1 h,[3]; [11],73.9 ng/mL
same,concentration at 3 h,[3]; [11],5.9 ng/mL
same,AUC0-inf,"[3]; male, CD-1, mouse, plasma, ip, 2 mg/kg, Mean, read-out: AUC0-inf",205 ng·h/mL
same,Cmax,"[3]; male, CD-1, mouse, plasma, ip, 2 mg/kg, Mean, read-out: Cmax",228 ng/mL
same,MRT last,"[3]; male, CD-1, mouse, plasma, ip, 2 mg/kg, Mean, read-out: MRT0-last",44.4 min
same,concentration at 0.25 h,[3]; [12],207 ng/mL
same,concentration at 1 h,[3]; [12],85.2 ng/mL
same,concentration at 5 h,[3]; [12],2.52 ng/mL
same,AUC0-inf,"[3]; male, CD-1, mouse, plasma, ip, 2 mg/kg, individual mice M1-M3, read-out: AUC0-inf",212 ng·h/mL
same,Cmax,"[3]; male, CD-1, mouse, plasma, ip, 2 mg/kg, individual mice M1-M3, read-out: Cmax",207 ng/mL
same,Tmax,"[3]; male, CD-1, mouse, IP 2.0 mg/kg, plasma, individual mice M1-M3",15 min
